Experimental data from patent US4221808A, “Novel antihypertensive agent” (Richardson-Merrell Inc., priority 1979, dated 1980).

Columns and labels:
[1] = tested on: β-adrenergic receptor; test: β-Adrenergic receptor blocking activity in isolated guinea pig atria, isoproterenol as agonist; format: cell-based; conditions: from pA2 values, guinea pig atria (β) vs rabbit aortic strip (α)
Method: (§1) β-Adrenergic receptor blocking activity was determined in vitro by performing cumulative dose-response experiments in the isolated guinea pig atria preparation using isoproterenol as the agonist. The response (increase in rate) of the guinea pig atria preparation in the presence of logarithmically increasing concentration of the compounds being tested were expressed as percent of the maximal attainable response. Relative antagonistic potency was expressed as a pA2 value, as defined above.

[2] = target: T1, β-adrenergic receptor (Cavia porcellus, UniProt H0W3H1); test: as above; format: cell-based; conditions: isolated guinea pig atria; agonist isoproterenol; increase in rate; read-out: pA2 for β-adrenergic receptor blocking activity (converted)
T1 construct: isolated guinea pig atria preparation; from tissue; host or cells: guinea pig atria (isolated)
T1 sequence (H0W3H1 1-470): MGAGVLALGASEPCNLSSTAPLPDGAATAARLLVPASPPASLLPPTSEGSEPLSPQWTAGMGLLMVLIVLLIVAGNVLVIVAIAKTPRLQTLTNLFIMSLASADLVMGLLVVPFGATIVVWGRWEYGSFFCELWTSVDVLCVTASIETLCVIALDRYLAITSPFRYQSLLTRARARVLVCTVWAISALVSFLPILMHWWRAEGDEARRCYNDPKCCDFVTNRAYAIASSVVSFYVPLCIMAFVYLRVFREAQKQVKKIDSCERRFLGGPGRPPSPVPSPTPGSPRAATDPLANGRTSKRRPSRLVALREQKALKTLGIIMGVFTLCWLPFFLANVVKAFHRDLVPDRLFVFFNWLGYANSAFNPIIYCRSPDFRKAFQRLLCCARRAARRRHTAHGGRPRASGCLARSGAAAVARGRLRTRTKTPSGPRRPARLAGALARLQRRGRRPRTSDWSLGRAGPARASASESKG
Method: as §1

[3] = tested on: α-adrenergic receptor; test: α-Adrenergic receptor blocking activity in isolated rabbit aortic strip, norepinephrine as agonist; format: cell-based; conditions: contractile response
Method: α-Adrenergic receptor blocking activity was determined in vitro by performing cumulative dose-response experiments in the isolated rabbit aortic strip preparation using norepinephrine as the agonist. The contractile response of the rabbit strip preparation in the presence of logarithmically increasing concentrations of the compounds being tested were expressed as percent of the maximal attainable response.

[4] = tested on: spontaneously hypertensive rats (SHR); test: Antihypertensive activity in spontaneously hypertensive rats, systolic blood pressure by tail cuff; format: in vivo, rat; conditions: oral dose of 50 mg/kg
Method: Antihypertensive activity was determined in spontaneously hypertensive rats (SHR) of the Okomotor Aoki strain. Systolic blood pressure of the SHR was measured from the caudal artery by means of an indirect method utilizing a photocell transducer/tail cuff occluder system. Time response relationships were determined for each compound following an oral dose of 50 mg/kg. Data were expressed as mm Hg decrease from control values. Statistical significance was determined using a 2 tailed "t" test comparing drug treatment response values to those obtained from concurrent vehicle treated animals.

Compound | ratio of β/α blocking activity [1] | Kb [2] [nM] | pA2 for α-adrenergic receptor blocking activity [3] | decrease in systolic blood pressure from control values ([4]; after 1 hour) | decrease in systolic blood pressure from control values ([4]; after 4 hours)
COc1ccc(C(O)CNC(C)CCc2ccc3c(c2)OCO3)cc1C(N)=O.Cl (stereo not shown) [compound 1, 5-[2-[[3-(1,3-Benzodioxol-5-yl)-1-methylpropyl]amino]-1-hydroxyethyl]-2-methoxybenzamide hydrochloride] | > 2089 | 3.47 | 5.14 | 42 mm Hg | 67 mm Hg
CC(CCc1ccc2c(c1)OCO2)NCC(O)c1ccc(O)c(C(N)=O)c1.Cl (stereo not shown) [compound 2, 5-[2-[[3-(1,3-benzodioxol-5-yl)-1-methylpropyl]amino]-1-hydroxyethyl]-2-hydroxybenzamide hydrochloride] | 55 | 15.1 | 6.08 | 71 mm Hg | 64 mm Hg
Cc1ccc(N(CC2=NCCN2)c2cccc(O)c2)cc1 [phentolamine] | – | > 10000 | – | 62 mm Hg | 60 mm Hg
CC(C)NCC(O)COc1cccc2ccccc12 (stereo not shown) [propranolol] | – | – | < 5 | did not lower blood pressure significantly | did not lower blood pressure significantly
